Calls of active or inactive are those of the source. The rule behind the calls is not given here.
Experiments:
[1] = test system: Mus musculus; test: Antianxiety activity in mouse assessed as ataxia, catatonia, and alterations in motor activity and startle reflex at 50 mg/kg, ip after 30 to 120 mins; type: functional, organism-based; parameters: dose 50 mg/kg
[2] = test system: Mus musculus; test: Antianxiety activity in mouse assessed as ataxia, catatonia, and alterations in motor activity and startle reflex at 100 mg/kg, ip after 30 to 120 mins; type: functional, organism-based; parameters: dose 100 mg/kg
[3] = test system: Rattus norvegicus; test: Antianxiety activity in ip dosed rat assessed as punished responding by conditioned lick suppression behavioral test; type: functional; settings: read-out: MED
[4] = test system: Rattus norvegicus; test: Antianxiety activity in po dosed rat assessed as punished responding by conditioned lick suppression behavioral test; type: functional; settings: read-out: MED
[5] = test system: Rattus norvegicus; test: Antipsychotic activity in ip dosed rat assessed as reduction in avoidance responding by Sidman avoidance test; type: functional
[6] = test system: Mus musculus; test: […] in po dosed mouse assessed as potentiation of sodium barbital-induced loss of the righting reflex in 50% mouse; type: functional
[7] = Acute toxicity in mouse measured following single po dose; type: organism-based; settings: in vivo
[8] = test system: Mus musculus; test: […] in po dosed mouse assessed as potentiation of ethanol-induced loss of the righting reflex in 50% mouse; type: functional
[9] = Acute toxicity in mouse measured following single ip dose; type: organism-based; settings: in vivo
[10] = test system: Rattus norvegicus; test: Anticonvulsant activity in ip dosed rat assessed as impairment of motor performance by forced motor activity test; type: functional
[11] = test system: Rattus norvegicus; test: Anticonvulsant activity in ip dosed rat assessed as impairment of motor performance by spontaneous motor activity test; type: functional
[12] = test system: Rhesus monkey; test: Antiaggressive activity in Rhesus monkey assessed as reduction in biting, pushing or attacking the pole responses at 2.5 to 10 mg/mg, po after 0 to 6 hrs; type: functional, organism-based; settings: Macaca mulatta
[13] = test system: Mus musculus; test: Antiaggressive activity in mouse assessed as change in foot shock-induced fighting behavior at 20 mg/kg, po after 90 mins; type: functional
[14] = test system: Rhesus monkey; test: Antiaggressive activity in Rhesus monkey assessed as reduction in biting, pushing or attacking the pole responses at 25 to 100 mg/mg, po after 0 to 6 hrs; type: functional, organism-based; settings: Macaca mulatta
[15] = test system: Mus musculus; test: Antiaggressive activity in mouse assessed as change in foot shock-induced fighting behavior at 80 mg/kg, po after 90 mins; type: functional
[16] = test system: Mus musculus; test: Antiaggressive activity in mouse assessed as change in foot shock-induced fighting behavior at 20 mg/kg, po after 30 mins; type: functional
[17] = test system: Rattus norvegicus; test: Antiaggressive activity in Long-Evans black-hooded rat assessed as suppression of muricide behavior for 2 mins period at 80 mg/kg, po; type: functional; settings: Long-Evans black-hood
[18] = test system: Mus musculus; test: Antiaggressive activity in mouse assessed as change in foot shock-induced fighting behavior at 80 mg/kg, po after 30 mins; type: functional
[19] = test system: Rattus norvegicus; test: Antiaggressive activity in Long-Evans black-hooded rat assessed as suppression of muricide behavior for 2 mins period at 20 mg/kg, po; type: functional; settings: Long-Evans black-hood

Row | Compound | Activity [1] | Activity [2] | further results
1 | Cc1cc(C)n2nc(Cl)cc2n1 | Active | Active | –
2 | Cc1cc(C)n2ncc(S(=O)(=O)Cl)c2n1 | inactive | inactive | –
3 | Cc1cc(C)n2ncc(F)c2n1 | Active | Active | minimal effective dose [3]: 40 mg/kg; minimal effective dose [4]: 80 mg/kg; ED50 [5]: 40.2 mg/kg
4 | Cc1cc(C)n2ncc(C(N)=O)c2n1 | Active | Active | –
5 | CNC1=Nc2ccc(Cl)cc2C(c2ccccc2)=[N+]([O-])C1 [CHLORDIAZEPOXIDE] | – | – | minimal effective dose [3]: 20 mg/kg; minimal effective dose [4]: 60 mg/kg; HD50 [6]: 6.4 mg/kg; ED50 [5]: 14.3 mg/kg; LD50 [7]: 939 mg/kg; HD50 [8]: 12.6 mg/kg; LD50 [9]: 183 mg/kg
6 | Cc1cc(C)n2ncc(C)c2n1 | Active | Active | –
7 | CCOC(=O)c1cnn2c(C)cc(C)nc12 | inactive | inactive | –
8 | Cc1cc(C)n2ncc(-c3ccccc3)c2n1 | inactive | inactive | –
9 | Cc1cc(C)n2nc(O)c(Br)c2n1 | inactive | inactive | –
10 | Cc1cc(C)n2ncc(S)c2n1 | inactive | inactive | –
11 | Cc1cc(C)n2ncc(N=O)c2n1 | inactive | inactive | –
12 | Cc1cc(C)n2ncc(SC#N)c2n1 | inactive | inactive | –
13 | Cc1ccn2nccc2n1 | Active | Active | –
14 | Cc1cc(C)n2ncc(/C(N)=N/O)c2n1 | inactive | inactive | –
15 | CN1C(=O)CN=C(c2ccccc2)c2cc(Cl)ccc21 [DIAZEPAM] | – | – | minimal effective dose [3]: 20 mg/kg; minimal effective dose [4]: 20 mg/kg; HD50 [6]: 0.5 mg/kg; ED50 [5]: 11.3 mg/kg; ED50 [10]: 5.6 mg/kg; HD50 [8]: 1.5 mg/kg; ED50 [11]: 9.2 mg/kg; inhibition [12]: inactive
16 | Cc1cc(C)n2nc(Br)cc2n1 | Active | Active | –
17 | CCCCc1cc(CCCC)n2ncc(Br)c2n1 | inactive | inactive | –
18 | Cc1cnc2ccnn2c1 | inactive | inactive | –
19 | CCc1cc(C)nc2c(Br)cnn12 | Active | Active | –
20 | Cc1cn2nccc2nc1C | inactive | inactive | –
21 | Cc1cc(C)n2ncc(S(N)(=O)=O)c2n1 | inactive | inactive | –
22 | Cc1cn2ncc(Br)c2nc1C | inactive | inactive | –

Row | Compound | Activity [1] | Activity [2] | further results
23 | CC(C)c1cc(C(C)C)n2ncc(Br)c2n1 | inactive | inactive | –
24 | CCc1cc(CC)n2ncc(Br)c2n1 | Active | Active | –
25 | Cc1cc(C)n2ncc(S(=O)(=O)N3CCN(C)CC3)c2n1 | inactive | inactive | –
26 | Cc1cc(C)n2[nH]c(=O)cc2n1 | inactive | inactive | –
27 | CCCc1cc(C)nc2c(Br)cnn12 | Active | Active | –
28 | Cc1cc(C)n2ncc(N)c2n1 | inactive | inactive | –
29 | Cc1cc(C)n2nccc2n1 | Active | Active | minimal effective dose [3]: 40 mg/kg; minimal effective dose [4]: 60 mg/kg; HD50 [6]: 118.8 mg/kg; ED50 [5]: 60.3 mg/kg; ED50 [10]: 65 mg/kg; LD50 [7]: 928 mg/kg; HD50 [8]: 228.6 mg/kg; ED50 [11]: 79 mg/kg; LD50 [9]: 537 mg/kg
30 | CN(C)CCCN1c2ccccc2Sc2ccc(Cl)cc21 [CHLORPROMAZINE] | – | – | ED50 [5]: 3.7 mg/kg
31 | Cc1cc(C)n2ncc(I)c2n1 | Active | Active | minimal effective dose [3]: 20 mg/kg; minimal effective dose [4]: 120 mg/kg; HD50 [6]: 142.8 mg/kg; ED50 [5]: 39.1 mg/kg; ED50 [10]: 19.8 mg/kg; LD50 [7]: > 3000 mg/kg; HD50 [8]: 296.1 mg/kg; ED50 [11]: 24.9 mg/kg; LD50 [9]: 612 mg/kg
32 | Cc1cc(C)n2ncc(Br)c2n1 | Active | Active | minimal effective dose [3]: 10 mg/kg; Activity [13]: 13%; minimal effective dose [4]: 20 mg/kg; inhibition [14]: inactive; Activity [15]: -8%; HD50 [6]: 61.9 mg/kg; Activity [16]: 30%; ED50 [5]: 29.5 mg/kg; ED50 [10]: 18.4 mg/kg; LD50 [7]: 1350 mg/kg; HD50 [8]: 236.8 mg/kg; ED50 [11]: 27.1 mg/kg; LD50 [9]: 458 mg/kg; inhibition in vivo at 80 mg/kg [17]: 60%; Activity [18]: -46%; inhibition in vivo at 20 mg/kg [19]: 0%
33 | Cc1ccnc2c(Br)cnn12 | inactive | inactive | –
34 | CC(=O)Cc1cc(C)nc2ccnn12 | Active | Active | –
35 | Cc1cc(C)n2ncc(C(=O)C(F)(F)F)c2n1 | inactive | inactive | –
36 | Cc1cc(C)n2ncc(C(N)=S)c2n1 | inactive | inactive | –
37 | Cc1cc(C)n2ncc(C#N)c2n1 | inactive | inactive | –
38 | c1cnc2ccnn2c1 | Active | Active | –
39 | FC(F)(F)c1cc(C(F)(F)F)n2nccc2n1 | inactive | inactive | –
40 | Brc1cnn2cccnc12 | inactive | inactive | –
41 | Cc1ccnc2ccnn12 | inactive | inactive | –
42 | Cc1cc(C)n2ncc(Cl)c2n1 | Active | Active | minimal effective dose [3]: 10 mg/kg; Activity [13]: 22%; minimal effective dose [4]: 10 mg/kg; inhibition [14]: inactive; Activity [15]: -57%; HD50 [6]: 60.9 mg/kg; Activity [16]: -3%; ED50 [5]: 31.8 mg/kg; ED50 [10]: 32.7 mg/kg; LD50 [7]: 599 mg/kg; HD50 [8]: 391.7 mg/kg; ED50 [11]: 38.6 mg/kg; LD50 [9]: 369 mg/kg; inhibition in vivo at 80 mg/kg [17]: 80%; Activity [18]: -89%; inhibition in vivo at 20 mg/kg [19]: 0%
43 | Cc1cc(C)n2ncc([N+](=O)[O-])c2n1 | inactive | inactive | –

— ChEMBL document CHEMBL3244062, “3-Halo-5,7-dimethylpyrazolo [1,5-a]pyrimidines, a nonbenzodiazepinoid class of antianxiety agents devoid of potentiation of central nervous system depressant effects of ethanol or barbiturates” (J Med Chem, 1977)
